{"source": "patent US11839612B1", "about": "“Compounds and combinations thereof for treating neurological and psychiatric conditions” (priority 2022, dated 2023)", "key": {"[1]": {"experiment": "Co-administration of paroxetine (strong CYP2D6 inhibitor) and the subject combination", "description": "Co-administration of the SSRI paroxetine and the subject combination was studied in 29 healthy volunteers."}, "[2]": {"experiment": "Food effect on pharmacokinetics of the subject combination", "assay_type": "in vivo, human", "details": "subject combination administered with food"}, "[3]": {"experiment": "Pharmacokinetics after administration of the subject combination (steady state)", "details": "human, in vivo; for half-life: mean elimination half-life"}, "plasma protein": {"tested_on": "plasma protein", "experiment": "Plasma protein binding"}, "[4]": {"experiment": "Pharmacokinetics in CYP2D6 poor metabolizers vs extensive metabolizers", "description": "Approximately 7 to 10% of Caucasians and 3 to 8% of African Americans lack the capacity to metabolize CYP2D6 substrates and are classified as poor metabolizers.\n(§1) Data are GMRs and 90% CIs. Reference used are the matched healthy subjects for renal and hepatic impairment studies, and extensive or ultra-extensive CYP2D6 metabolizers."}, "[5]": {"experiment": "Pharmacokinetics in subjects with moderate renal impairment vs matched controls", "description": "as §1"}, "[6]": {"details": "20 mg paroxetine concomitantly with tablet twice daily vs tablet twice daily without paroxetine"}, "[7]": {"details": "3 poor metabolizers compared to extensive metabolizers"}, "[8]": {"details": "7 subjects with moderate renal impairment (GFR 30-60 mL/min) vs 6 matched controls with normal renal function"}, "[9]": {"details": "patients having moderate renal impairment"}}, "note": "Entries after “also recorded” stand apart in the source; their conditions may differ."}
{"smiles": "COc1ccc2c(c1)[C@]13CCCC[C@@H]1[C@H](C2)N(C)CC3", "note": "[dextromethorphan]", "values": [{"measurement": "increase in AUC0-2", "setting": "[1]; [6]", "value": 2.69, "unit": "fold"}, {"measurement": "increase in Cmax", "setting": "[1]; [6]", "value": 2.38, "unit": "fold"}, {"measurement": "change of overall exposure by paroxetine", "setting": "[1]; 29 healthy volunteers, paroxetine co-administered with the subject combination", "value": 2.5, "unit": "fold"}, {"measurement": "plasma concentrations with concomitant strong CYP2D6 inhibitor", "setting": "[1]; concomitant use of the subject combination with a strong CYP2D6 inhibitor", "value": "increases"}, {"measurement": "AUC0-2 decrease with food", "setting": "[2]", "value": 14, "unit": "%"}, {"measurement": "Cmax change with food", "setting": "[2]", "value": "unchanged"}, {"measurement": "Tmax", "setting": "[3]", "value": "~3", "unit": "h"}, {"measurement": "half-life", "setting": "[3]; following 8 days of administration of the subject combination in extensive metabolizers", "value": "~1320", "unit": "min"}, {"measurement": "half-life", "setting": "[3]; subject combination", "value": 1320, "unit": "min"}, {"measurement": "fraction unbound", "setting": "plasma protein", "value": "0.3 to 0.4"}, {"measurement": "increase in AUC0-12", "setting": "[4]; [7]", "value": "~3.4", "unit": "fold"}, {"measurement": "increase in Cmax", "setting": "[4]; [7]", "value": "~3", "unit": "fold"}, {"measurement": "plasma concentrations in CYP2D6 poor metabolizers compared with non-poor metabolizers", "setting": "[4]; steady state, subject combination", "value": "increases; also recorded: generally higher"}, {"measurement": "increase of exposure", "setting": "[5]; [8]", "value": "approximately 2 fold"}, {"measurement": "reduction of clearance", "setting": "[5]; [8]", "value": 50, "unit": "%"}, {"measurement": "concentrations compared with patients with healthy renal function", "setting": "[5]; [9]", "value": "higher"}, {"measurement": "increase in AUC0-2", "setting": "[5]; [9]", "value": 2.21, "unit": "fold"}]}
{"smiles": "CC(NC(C)(C)C)C(=O)c1cccc(Cl)c1", "note": "(racemic) [bupropion]", "values": [{"measurement": "concentrations compared with patients with healthy renal function", "setting": "[5]; human, in vivo", "value": "higher"}, {"measurement": "increase in AUC0-2", "setting": "[5]; human, in vivo", "value": 1.80, "unit": "fold"}, {"measurement": "increase of exposure", "setting": "[5]; human, in vivo", "value": "approximately 2 fold"}, {"measurement": "reduction of clearance", "setting": "[5]; human, in vivo", "value": 50, "unit": "%"}]}
